Results on seven molecules are retold here after patent US20160271263A1 (Novo Nordisk A/S, priority 2010, published 2016).

SMILES strings stand for the structures. pEC50: −log10 of the molar value. Numbered stars: 1 amine (or outer) side, 2 acyl side, 3 side chain; on linkers, the order of the positions; unused ones are H or OH. Square brackets hold non-standard residues; d marks the D form. Side chains are listed from the residue outwards. Peptide text beside a SMILES is read from it. * marks the point of attachment. C18 diacid = O=C(O)CCCCCCCCCCCCCCCCC(=O)*; γGlu = O=C(O)[C@H](CCC(=O)[*:2])N[*:1]; AEEA = NCCOCCOCC(=O)O

The experiment deals with glucagon receptor (Homo sapiens, UniProt P47871). The experiment is described as follows: cell-based.
Sequence of glucagon receptor (P47871 26-477): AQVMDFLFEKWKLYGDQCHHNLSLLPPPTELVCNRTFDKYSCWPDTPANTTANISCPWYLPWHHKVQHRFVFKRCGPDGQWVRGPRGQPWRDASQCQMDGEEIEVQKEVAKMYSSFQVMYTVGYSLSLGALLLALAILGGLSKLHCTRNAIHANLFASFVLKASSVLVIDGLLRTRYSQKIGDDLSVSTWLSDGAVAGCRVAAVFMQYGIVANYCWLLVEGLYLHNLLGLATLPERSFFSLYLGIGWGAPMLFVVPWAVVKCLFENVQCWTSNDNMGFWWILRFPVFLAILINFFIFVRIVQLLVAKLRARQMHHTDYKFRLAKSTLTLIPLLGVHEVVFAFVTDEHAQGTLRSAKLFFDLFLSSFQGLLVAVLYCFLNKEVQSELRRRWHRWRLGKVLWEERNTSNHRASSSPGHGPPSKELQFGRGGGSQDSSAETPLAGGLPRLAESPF
Protocol: The cells (14000 per well) were incubated (37° C., 5% CO2) overnight in 384-well plates. Next day the cells were loaded with a calcium responsive dye that only distributed into the cytoplasm. Probenecid, an inhibitor of the organic anion transporter, was added to prevent the dye from leaving the cell. A PDE inhibitor was added to prevent formatted cAMP from being degraded. […] End point data were collected after 6 minutes. An increase in intracellular cAMP was proportional to an increased in calcium concentrations in the cytoplasm. […] EC50-values were calculated in Prism5.
As for `CC(C)C[C@H](NC(=O)[C@H](Cc1ccc(O)cc1)NC(=O)[C@H](CCCCN)NC(=O)[C@H](CO)NC(=O)[C@H](Cc1ccc(O)cc1)NC(=O)[C@H](CC(=O)O)NC(=O)[C@H](CO)NC(=O)[C@@H](NC(=O)[C@H](Cc1ccccc1)NC(=O)[C@@H](NC(=O)CNC(=O)[C@H](CCC(N)=O)NC(=O)[C@H](CO)NC(=O)[C@@H](N)Cc1c[nH]cn1)[C@@H](C)O)[C@@H](C)O)C(=O)N[C@@H](CC(=O)O)C(=O)N[C@@H](CO)C(=O)N[C@@H](CCCNC(=N)N)C(=O)N[C@@H](CCCNC(=N)N)C(=O)N[C@@H](C)C(=O)N[C@@H](CCCCNC(=O)CC[C@H](NC(=O)CC[C@H](NC(=O)COCCOCCNC(=O)COCCOCCNC(=O)CC[C@H](NC(=O)CCCCCCCCCCCCCCCCC(=O)O)C(=O)O)C(=O)O)C(=O)O)C(=O)N[C@@H](CC(=O)O)C(=O)N[C@@H](Cc1ccccc1)C(=O)N[C@H](C(=O)N[C@@H](CCC(N)=O)C(=O)N[C@@H](Cc1c[nH]c2ccccc12)C(=O)N[C@@H](CC(C)C)C(=O)N[C@@H](CC(C)C)C(=O)N[C@@H](CC(N)=O)C(=O)N[C@H](C(=O)O)[C@@H](C)O)C(C)C` [Example 98, N^ε20-[(4S)-4-carboxy-4-[[(4S)-4-carboxy-4-[[2-[2-[2-[[2-[2-[2-[[(4S)-4-carboxy-4-(17-carboxyheptadecanoylamino)butanoyl]amino]ethoxy]ethoxy]acetyl]amino]ethoxy]ethoxy]acetyl]amino]butanoyl]amino]butanoyl]-[Lys^20,Leu^27]-Glucagon], the pEC50 (usually −log10 of the EC50, conventionally taken in molar units) was 10.24.

`CC(C)C[C@H](NC(=O)[C@H](Cc1ccc(O)cc1)NC(=O)[C@H](CCCCN)NC(=O)[C@H](CO)NC(=O)[C@H](Cc1ccc(O)cc1)NC(=O)[C@H](CC(=O)O)NC(=O)[C@H](CO)NC(=O)[C@@H](NC(=O)[C@H](Cc1ccccc1)NC(=O)[C@@H](NC(=O)CNC(=O)[C@H](CCC(N)=O)NC(=O)[C@H](CO)NC(=O)[C@@H](N)Cc1c[nH]cn1)[C@@H](C)O)[C@@H](C)O)C(=O)N[C@@H](CC(=O)O)C(=O)N[C@@H](CO)C(=O)N[C@@H](CCCNC(=N)N)C(=O)N[C@@H](CCCNC(=N)N)C(=O)N[C@@H](C)C(=O)N[C@@H](CCC(N)=O)C(=O)N[C@@H](CC(=O)O)C(=O)N[C@@H](Cc1ccccc1)C(=O)N[C@H](C(=O)N[C@@H](CCCCNC(=O)COCCOCCNC(=O)COCCOCCNC(=O)CC[C@H](NC(=O)CC[C@H](NC(=O)CC[C@H](NC(=O)CCCCCCCCCCCCCCCCC(=O)O)C(=O)O)C(=O)O)C(=O)O)C(=O)N[C@@H](Cc1c[nH]c2ccccc12)C(=O)N[C@@H](CC(C)C)C(=O)N[C@@H](CC(C)C)C(=O)N[C@@H](CO)C(=O)N[C@H](C(=O)O)[C@@H](C)O)C(C)C` [Example 69, N^ε24-[2-[2-[2-[[2-[2-[2-[[(4S)-4-carboxy-4-[[(4S)-4-carboxy-4-[[(4S)-4-carboxy-4-(17-carboxyheptadecanoylamino)butanoyl]amino]butanoyl]amino]butanoyl]amino]ethoxy]ethoxy]acetyl]amino]ethoxy]ethoxy]acetyl]-[Lys^24,Leu^27,Ser^28]-Glucagon]: the pEC50 was 9.94. Take `CC(C)C[C@H](NC(=O)[C@H](Cc1ccc(O)cc1)NC(=O)[C@H](CCCCN)NC(=O)[C@H](CO)NC(=O)[C@H](Cc1ccc(O)cc1)NC(=O)[C@H](CC(=O)O)NC(=O)[C@H](CO)NC(=O)[C@@H](NC(=O)[C@H](Cc1ccccc1)NC(=O)[C@@H](NC(=O)CNC(=O)[C@H](CCC(N)=O)NC(=O)[C@@H](CO)NC(=O)[C@@H](N)Cc1c[nH]cn1)[C@@H](C)O)[C@@H](C)O)C(=O)N[C@@H](CC(=O)O)C(=O)N[C@@H](CCC(=O)O)C(=O)N[C@@H](CCC(N)=O)C(=O)N[C@@H](C)C(=O)N[C@@H](C)C(=O)N[C@@H](CCCNC(=N)N)C(=O)N[C@@H](CC(=O)O)C(=O)N[C@@H](Cc1ccccc1)C(=O)N[C@H](C(=O)N[C@@H](CCCCNC(=O)COCCOCCNC(=O)COCCOCCNC(=O)CC[C@H](NC(=O)CCCCCCCCCCCCCCCCC(=O)O)C(=O)O)C(=O)N[C@@H](Cc1c[nH]c2ccccc12)C(=O)N[C@@H](CC(C)C)C(=O)N[C@@H](CC(C)C)C(=O)N[C@@H](CC(N)=O)C(=O)N[C@H](C(N)=O)[C@@H](C)O)C(C)C` [Example 30, N^ε24-([2-[2-[2-[[2-[2-[2-[[(4S)-5-hydroxy-4-[(18-hydroxy-18-oxooctadecanoyl)amino]-5-oxopentanoyl]amino]ethoxy]ethoxy]acetyl]amino]ethoxy]ethoxy]acetyl]) [D-Ser^2,Glu^16,Gln^17,Ala^18,Arg^20,Lys^24,Leu^27] Glucagon peptide amide] (H-H[dS]QGTFTSDYSKYLDEQAARDFVK([AEEA-AEEA-γGlu-C18 diacid])WLLNT-NH2; N-terminus assumed): the pEC50 is 9.86.

On to `CC(C)C[C@H](NC(=O)[C@H](Cc1ccc(O)cc1)NC(=O)[C@H](CCCCN)NC(=O)[C@H](CO)NC(=O)[C@H](Cc1ccc(O)cc1)NC(=O)[C@H](CC(=O)O)NC(=O)[C@H](CO)NC(=O)[C@@H](NC(=O)[C@H](Cc1ccccc1)NC(=O)[C@@H](NC(=O)CNC(=O)[C@H](CCC(N)=O)NC(=O)[C@H](CO)NC(=O)[C@@H](N)Cc1c[nH]cn1)[C@@H](C)O)[C@@H](C)O)C(=O)N[C@@H](CC(=O)O)C(=O)N[C@@H](CCCCNC(=O)COCCOCCNC(=O)COCCOCCNC(=O)CC[C@H](NC(=O)CCCCCCCCCCCCCCCCC(=O)O)C(=O)O)C(=O)N[C@@H](CCCCN)C(=O)N[C@@H](CCCNC(=N)N)C(=O)N[C@@H](C)C(=O)N[C@@H](CCC(N)=O)C(=O)N[C@@H](CCC(=O)O)C(=O)N[C@@H](Cc1ccccc1)C(=O)N[C@H](C(=O)N[C@@H](CCC(N)=O)C(=O)N[C@@H](Cc1c[nH]c2ccccc12)C(=O)N[C@@H](CC(C)C)C(=O)N[C@@H](CC(C)C)C(=O)N[C@@H](CC(N)=O)C(=O)N[C@H](C(=O)O)[C@@H](C)O)C(C)C` [Example 5] (H-HSQGTFTSDYSKYLDK([AEEA-AEEA-γGlu-C18 diacid])KRAQEFVQWLLNT-OH; N-terminus and C-terminus assumed), for which the pEC50 was 10.70. `CC(C)C[C@H](NC(=O)[C@H](Cc1ccc(O)cc1)NC(=O)[C@H](CCCCN)NC(=O)[C@H](CO)NC(=O)[C@H](Cc1ccc(O)cc1)NC(=O)[C@H](CC(=O)O)NC(=O)[C@H](CO)NC(=O)[C@@H](NC(=O)[C@H](Cc1ccccc1)NC(=O)[C@@H](NC(=O)CNC(=O)[C@H](CCC(N)=O)NC(=O)[C@H](CO)NC(=O)[C@@H](N)Cc1c[nH]cn1)[C@@H](C)O)[C@@H](C)O)C(=O)N[C@@H](CC(=O)O)C(=O)N[C@@H](CCCCNC(=O)COCCOCCNC(=O)COCCOCCNC(=O)CC[C@H](NC(=O)CCCCCCCCCCCCCCCCC(=O)O)C(=O)O)C(=O)N[C@@H](CCCCN)C(=O)N[C@@H](CCCCN)C(=O)N[C@@H](C)C(=O)N[C@@H](CCC(N)=O)C(=O)N[C@@H](CCC(=O)O)C(=O)N[C@@H](Cc1ccccc1)C(=O)N[C@H](C(=O)N[C@@H](CCC(N)=O)C(=O)N[C@@H](Cc1c[nH]c2ccccc12)C(=O)N[C@@H](CC(C)C)C(=O)N[C@@H](CC(C)C)C(=O)N[C@@H](CC(N)=O)C(=O)N[C@H](C(=O)O)[C@@H](C)O)C(C)C` [Example 6] (H-HSQGTFTSDYSKYLDK([AEEA-AEEA-γGlu-C18 diacid])KKAQEFVQWLLNT-OH; N-terminus and C-terminus assumed) gave a pEC50 of 10.70. `CC(C)C[C@H](NC(=O)[C@H](Cc1ccc(O)cc1)NC(=O)[C@H](CCCCN)NC(=O)[C@H](CO)NC(=O)[C@H](Cc1ccc(O)cc1)NC(=O)[C@H](CC(=O)O)NC(=O)[C@H](CO)NC(=O)[C@@H](NC(=O)[C@H](Cc1ccccc1)NC(=O)[C@@H](NC(=O)CNC(=O)[C@H](CCC(N)=O)NC(=O)[C@H](CO)NC(=O)[C@@H](N)Cc1c[nH]cn1)[C@@H](C)O)[C@@H](C)O)C(=O)N[C@@H](CC(=O)O)C(=O)N[C@@H](CO)C(=O)N[C@@H](CCCCN)C(=O)N[C@@H](CCCNC(=N)N)C(=O)N[C@@H](C)C(=O)N[C@@H](CCC(N)=O)C(=O)N[C@@H](CCC(=O)O)C(=O)N[C@@H](Cc1ccccc1)C(=O)N[C@H](C(=O)N[C@@H](CCCCNC(=O)COCCOCCNC(=O)COCCOCCNC(=O)CC[C@H](NC(=O)CCCCCCCCCCCCCCCCC(=O)O)C(=O)O)C(=O)N[C@@H](Cc1c[nH]c2ccccc12)C(=O)N[C@@H](CC(C)C)C(=O)N[C@@H](CC(C)C)C(=O)N[C@@H](CCC(=O)O)C(=O)N[C@H](C(N)=O)[C@@H](C)O)C(C)C` [Example 41, N^ε24-([2-[2-[2-[[2-[2-[2-[[(4S)-5-hydroxy-4-[(18-hydroxy-18-oxooctadecanoyl)amino]-5-oxopentanoyl]amino]ethoxy]ethoxy]acetyl]amino]ethoxy]ethoxy]acetyl])[Lys^17, Glu^21,Lys^24,Leu^27,Glu^28,]Glucagon peptide amide] (H-HSQGTFTSDYSKYLDSKRAQEFVK([AEEA-AEEA-γGlu-C18 diacid])WLLET-NH2; N-terminus assumed) gave a pEC50 of 11.52. Under `CC(C)C[C@H](NC(=O)[C@H](Cc1ccc(O)cc1)NC(=O)[C@H](CCCCN)NC(=O)[C@H](CO)NC(=O)[C@H](Cc1ccc(O)cc1)NC(=O)[C@H](CC(=O)O)NC(=O)[C@H](CO)NC(=O)[C@@H](NC(=O)[C@H](Cc1ccccc1)NC(=O)[C@@H](NC(=O)CNC(=O)[C@H](CCC(N)=O)NC(=O)[C@H](CO)NC(=O)[C@@H](N)Cc1c[nH]cn1)[C@@H](C)O)[C@@H](C)O)C(=O)N[C@@H](CC(=O)O)C(=O)N[C@@H](CO)C(=O)N[C@@H](CCCNC(=N)N)C(=O)N[C@@H](CCCNC(=N)N)C(=O)N[C@@H](C)C(=O)N[C@@H](CCC(N)=O)C(=O)N[C@@H](CC(=O)O)C(=O)N[C@@H](Cc1ccccc1)C(=O)N[C@H](C(=O)N[C@@H](CCC(N)=O)C(=O)N[C@@H](Cc1c[nH]c2ccccc12)C(=O)N[C@@H](CC(C)C)C(=O)N[C@@H](CC(C)C)C(=O)N[C@@H](CCCCNC(=O)CC[C@H](NC(=O)CC[C@H](NC(=O)COCCOCCNC(=O)COCCOCCNC(=O)CC[C@H](NC(=O)CCCCCCCCCCCCCCCCC(=O)O)C(=O)O)C(=O)O)C(=O)O)C(=O)N[C@H](C(=O)O)[C@@H](C)O)C(C)C` [Example 52, N^ε28-([(4S)-5-hydroxy-4-[[(4S)-5-hydroxy-4-[[2-[2-[2-[[2-[2-[2-[[(4S)-5-hydroxy-4-[(18-hydroxy-18-oxooctadecanoyl)amino]-5-oxopentanoyl]amino]ethoxy]ethoxy]acetyl]amino]ethoxy]ethoxy]acetyl]amino]-5-oxopentanoyl]amino]-5-oxopentanoyl]) [Leu^27,Lys^28] Glucagon] stands 10.26.
